# Experimental data reported in patent publication US11319299B2, “Substituted carboxamides as inhibitors of WDR5 protein-protein binding” (PROPELLON THERAPEUTICS INC., priority 2016, dated 2022).
# pKd: −log10 of the molar value.
# Molecular target: WDR5 (Homo sapiens (Human), UniProt P61964)
# Experiment: Surface Plasmon Resonance (SPR) assay, KD and residence time
# Assay type: binding
# Conditions: surface plasmon resonance (SPR) assay; read-out: WDR5 binding affinity (KD)
row,SMILES,pKd
1,"C[C@@H]1CN(c2cc(F)c(C3=CCCN(C(=O)OC(C)(C)C)C3)cc2NC(=O)c2cn(C)c(=O)cc2C(F)(F)F)C[C@H](C)N1C [Example 325, tert-butyl 5-[2-fluoro-5-[[-methyl-6-oxo-4-(trifluoromethyl)pyridine-3-carbonyl]amino]-4-[(3R,5S)-3,4,5-trimethylpiperazin-1-yl]phenyl]-3,6-dihydro-2H-pyridine-1-carboxylate]",8.14
2,"C[C@@H]1CN(c2cc(F)c(C3=CCNC3)cc2NC(=O)c2c[nH]c(=O)cc2C(F)(F)F)C[C@H](C)N1C [Example 329, N-[5-(2,5-dihydro-1H-pyrrol-3-yl)-4-fluoro-2-[(3R,5S)-3,4,5-trimethylpiperazin-1-yl]phenyl]-6-oxo-4-(trifluoromethyl)-1H-pyridine-3-carboxamide]",8.39
3,"C[C@@H]1CN(c2cc(F)c(C3=CC4CCC(C3)N4)cc2NC(=O)c2c[nH]c(=O)cc2C(F)(F)F)C[C@H](C)N1C (stereo partly drawn) [Example 330, N-[5-(8-azabicyclo[3.2.1]oct-2-en-3-yl)-4-fluoro-2-[(3R,5S)-3,4,5-trimethylpiperazin-1-yl]phenyl]-6-oxo-4-(trifluoromethyl)-1H-pyridine-3-carboxamide]",8.24
4,"C[C@@H]1CN(c2cc(F)c(C3=CCN(c4ncccn4)C3)cc2NC(=O)c2c[nH]c(=O)cc2C(F)(F)F)C[C@H](C)N1C [Example 335, N-[4-fluoro-5-(1-pyrimidin-2-yl-2,5-dihydropyrrol-3-yl)-2-[(3R,5S)-3,4,5-trimethylpiperazin-1-yl]phenyl]-6-oxo-4-(trifluoromethyl)-1H-pyridine-3-carboxamide]",8.59
5,"C[C@@H]1CN(c2cc(F)c(C3=CC4CCC(C3)N4c3ncccn3)cc2NC(=O)c2c[nH]c(=O)cc2C(F)(F)F)C[C@H](C)N1C (stereo partly drawn) [Example 336, N-[4-fluoro-5-(8-pyrimidin-2-yl-8-azabicyclo[3.2.1]oct-2-en-3-yl)-2-[(3R,5S)-3,4,5-trimethylpiperazin-1-yl]phenyl]-6-oxo-4-(trifluoromethyl)-1H-pyridine-3-carboxamide]",7.90
6,"C[C@@H]1CN(c2cc(F)c(-c3cnc(N4CCOCC4)nc3)cc2NC(=O)c2cn(C)c(=O)cc2C(F)F)C[C@H](C)N1C [Example 342, 4-(difluoromethyl)-N-[4-fluoro-5-(2-morpholin-4-ylpyrimidin-5-yl)-2-[(3R,5S)-3,4,5-trimethylpiperazin-1-yl]phenyl]-1-methyl-6-oxopyridine-3-carboxamide]",8.16
7,"CCN(C)[C@@H]1CCN(c2cc(F)c(-c3cnc(N4CCOCC4)nc3)cc2NC(=O)c2c[nH]c(=O)cc2C(F)(F)F)C1 [Example 345, N-[4-fluoro-5-(2-morpholin-4-ylpyrimidin-5-yl)-2-[(3R)-3-[ethyl(methyl)amino]pyrrolidin-1-yl]phenyl]-6-oxo-4-(trifluoromethyl)-1H-pyridine-3-carboxamide]",8.92
8,"C[C@@H]1CN(c2cc(F)c(-c3cnc(N4C5CCC4CC5)nc3)cc2NC(=O)c2c[nH]c(=O)cc2C(F)(F)F)C[C@H](C)N1C [Example 352, N-[5-[2-(7-azabicyclo[2.2.1]heptan-7-yl)pyrimidin-5-yl]-4-fluoro-2-[(3R,5S)-3,4,5-trimethylpiperazin-1-yl]phenyl]-6-oxo-4-(trifluoromethyl)-1H-pyridine-3-carboxamide]",8.56
9,"C[C@@H]1CN(c2cc(F)c(-c3cnc(N4CCOCC4)nc3)cc2NC(=O)c2ccc(F)cc2C(F)(F)F)C[C@H](C)N1 [Example 364, 4-fluoro-N-[4-fluoro-5-(2-morpholin-4-ylpyrimidin-5-yl)-2-[(3R,5S)-3,5-dimethylpiperazin-1-yl]phenyl]-2-(trifluoromethyl)benzamide]",8.23
10,"COc1cc(N2CCC=C(c3cc(NC(=O)c4c[nH]c(=O)cc4C(F)(F)F)c(N4C[C@@H](C)N(C)[C@@H](C)C4)cc3F)C2)ncn1 [Example 365, N-[4-fluoro-5-[1-(6-methoxypyrimidin-4-yl)-3,6-dihydro-2H-pyridin-5-yl]-2-[(3R,5S)-3,4,5-trimethylpiperazin-1-yl]phenyl]-6-oxo-4-(trifluoromethyl)-1H-pyridine-3-carboxamide]",9.61
11,"C[C@@H]1CN(c2cc(F)c(C3=CCN(c4ncc(F)cn4)CC3)cc2NC(=O)c2c[nH]c(=O)cc2C(F)(F)F)C[C@H](C)N1C [Example 367, N-[4-fluoro-5-[1-(5-fluoropyrimidin-2-yl)-3,6-dihydro-2H-pyridin-4-yl]-2-[(3R,5S)-3,4,5-trimethylpiperazin-1-yl]phenyl]-6-oxo-4-(trifluoromethyl)-1H-pyridine-3-carboxamide]",8.98

# More lines, in order of rising pKd, values ahead:
row,pKd,SMILES
1,6.56,"C[C@@H]1CN(c2cc(F)c(C3CN=C(N4CCOCC4)NC3)cc2NC(=O)c2c[nH]c(=O)cc2C(F)(F)F)C[C@H](C)N1C (stereo partly drawn) [Example 339, N-[4-fluoro-5-(2-morpholin-4-yl-1,4,5,6-tetrahydropyrimidin-5-yl)-2-[(3R,5S)-3,4,5-trimethylpiperazin-1-yl]phenyl]-6-oxo-4-(trifluoromethyl)-1H-pyridine-3-carboxamide]"
2,7.91,"CCN(C)[C@@H]1CN(c2cc(F)c(-c3cnc(N4CCOCC4)nc3)cc2NC(=O)c2c[nH]c(=O)cc2C(F)(F)F)C[C@H]1F [Example 344, N-[4-fluoro-5-(2-morpholin-4-ylpyrimidin-5-yl)-2-[(3R,4R)-3-[ethyl(methyl)amino]-4-fluoropyrrolidin-1-yl]phenyl]-6-oxo-4-(trifluoromethyl)-1H-pyridine-3-carboxamide]"
3,8.52,"C[C@@H]1CN(c2cc(F)c(C3=CCN(C(=O)OC(C)(C)C)C3)cc2NC(=O)c2cn(C)c(=O)cc2C(F)(F)F)C[C@H](C)N1C [Example 326, tert-butyl 3-[2-fluoro-5-[[-methyl-6-oxo-4-(trifluoromethyl)pyridine-3-carbonyl]amino]-4-[(3R,5S)-3,4,5-trimethylpiperazin-1-yl]phenyl]-2,5-dihydropyrrole-1-carboxylate]"
4,8.75,"COc1cnc(N2CC=C(c3cc(NC(=O)c4c[nH]c(=O)cc4C(F)(F)F)c(N4C[C@@H](C)N(C)[C@@H](C)C4)cc3F)CC2)nc1 [Example 366, N-[4-fluoro-5-[1-(5-methoxypyrimidin-2-yl)-3,6-dihydro-2H-pyridin-4-yl]-2-[(3R,5S)-3,4,5-trimethylpiperazin-1-yl]phenyl]-6-oxo-4-(trifluoromethyl)-1H-pyridine-3-carboxamide]"
5,8.85,"C[C@@H]1CN(c2cc(F)c(-c3cnc(N4CCOC(C)(C)C4)nc3)cc2NC(=O)c2c[nH]c(=O)cc2C(F)(F)F)C[C@H](C)N1C [Example 350, N-[5-[2-(2,2-dimethylmorpholin-4-yl)pyrimidin-5-yl]-4-fluoro-2-[(3R,5S)-3,4,5-trimethylpiperazin-1-yl]phenyl]-6-oxo-4-(trifluoromethyl)-1H-pyridine-3-carboxamide]"
6,9.26,"C[C@@H]1CN(c2ncc(-c3cc(NC(=O)c4c[nH]c(=O)cc4C(F)(F)F)c(N4CCN(C)[C@@H](C)C4)cc3F)cn2)CCO1 [Example 340, N-[4-fluoro-2-[(3S)-3,4-dimethylpiperazin-1-yl]-5-[2-[(2R)-2-methylmorpholin-4-yl]pyrimidin-5-yl]phenyl]-6-oxo-4-(trifluoromethyl)-1H-pyridine-3-carboxamide]"
